biological target: T1, glucocorticoid receptor (Homo sapiens, UniProt P04150); assay: Ligand binding assay (GR BIND)
T1 construct: endogenous in cells
T1 sequence (P04150 1-777): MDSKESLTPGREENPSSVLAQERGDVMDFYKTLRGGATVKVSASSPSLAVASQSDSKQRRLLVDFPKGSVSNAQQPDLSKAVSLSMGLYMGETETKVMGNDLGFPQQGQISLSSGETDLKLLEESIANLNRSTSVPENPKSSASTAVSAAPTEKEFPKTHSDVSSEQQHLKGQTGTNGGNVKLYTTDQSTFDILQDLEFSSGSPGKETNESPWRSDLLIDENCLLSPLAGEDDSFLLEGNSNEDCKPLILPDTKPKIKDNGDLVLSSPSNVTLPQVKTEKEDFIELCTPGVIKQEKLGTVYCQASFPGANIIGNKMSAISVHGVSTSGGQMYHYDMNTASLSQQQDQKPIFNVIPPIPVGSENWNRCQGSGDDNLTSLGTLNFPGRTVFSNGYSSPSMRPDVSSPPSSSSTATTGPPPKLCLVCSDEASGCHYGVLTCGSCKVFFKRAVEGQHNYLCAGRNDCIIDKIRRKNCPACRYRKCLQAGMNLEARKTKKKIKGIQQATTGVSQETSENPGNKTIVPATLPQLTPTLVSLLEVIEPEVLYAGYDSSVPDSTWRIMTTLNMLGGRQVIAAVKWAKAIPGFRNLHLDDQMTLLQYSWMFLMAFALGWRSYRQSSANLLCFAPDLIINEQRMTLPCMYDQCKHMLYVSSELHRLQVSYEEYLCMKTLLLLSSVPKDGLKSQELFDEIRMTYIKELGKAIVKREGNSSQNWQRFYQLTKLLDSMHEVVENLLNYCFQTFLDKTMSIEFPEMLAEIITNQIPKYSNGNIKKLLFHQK
Procedure, shortened: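 Cytosol from freeze–thawed cells in TEGM (pH 7.2, 10 mM molybdate) was incubated overnight at 4 °C with compound and [3H]-dexamethasone trace (added as 6 nM solution), 2% EtOH final. Bound ligand was captured on hydroxylapatite, filtered, washed and scintillation counted. Values were calculated with dexamethasone as reference.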

Ki [nM]	Structure (SMILES)
2.3	C[C@]12Cc3cnn(-c4ccc(F)cc4)c3C=C1CC[C@@H]2CN(CC1(O)CCCCC1)S(=O)(=O)c1ccccc1F [Example 201, 2-fluoro-N-{[(4αR,5S)-1-(4-fluorophenyl)-4α-methyl-1,4,4α,5,6,7-hexahydrocyclopenta[f]indazol-5-yl]methyl}-N-[(1-hydroxycyclohexyl)methyl]benzenesulfonamide]
8.5	C[C@]12Cc3cnn(-c4ccc(F)cc4)c3C=C1CC[C@@H]2CN(CC#N)S(=O)(=O)c1ccccc1C(F)(F)F [Example 54, N-(cyanomethyl)-N-{[(4αR,5S)-1-(4-fluorophenyl)-4α-methyl-1,4,4α,5,6,7-hexahydrocyclopenta[f]indazol-5-yl]methyl}-2-(trifluoromethyl)benzenesulfonamide]
1.1	COC(=O)c1ccccc1S(=O)(=O)N(CCc1ccccc1F)C[C@H]1CCC2=Cc3c(cnn3-c3ccc(F)cc3)C[C@@]21C [Example 189, methyl 2-[([2-(2-fluorophenyl)ethyl]{[(4αR,5S)-1-(4-fluorophenyl)-4α-methyl-1,4,4α,5,6,7-hexahydrocyclopenta[f]indazol-5-yl]methyl}amino)sulfonyl]benzoate]
5.3	C[C@]12Cc3cnn(-c4ccc(F)cc4)c3C=C1CC[C@@H]2CN(CC#N)S(=O)(=O)c1cc(Cl)c(Cl)s1 [Example 24, 4,5-dichloro-N-(cyanomethyl)-N-{[(4αR,5S)-1-(4-fluorophenyl)-4α-methyl-1,4,4α,5,6,7-hexahydrocyclopenta[f]indazol-5-yl]methyl}thiophene-2-sulfonamide]
5.1	Cn1nc(C(F)(F)F)cc1-c1ccc(S(=O)(=O)N(CC#N)C[C@H]2CCC3=Cc4c(cnn4-c4ccc(F)cc4)C[C@@]32C)s1 [Example 35]
4.4	C[C@]12Cc3cnn(-c4ccc(F)cc4)c3C=C1CC[C@@H]2CN(CCO)S(=O)(=O)c1ccc(C#N)cc1Cl [Example 60, 2-chloro-4-cyano-N-{[(4αR,5S)-1-(4-fluorophenyl)-4α-methyl-1,4,4α,5,6,7-hexahydrocyclopenta[f]indazol-5-yl]methyl}-N-(2-hydroxyethyl)benezenesulfonamide]
2.4	C[C@]12Cc3cnn(-c4ccc(F)cc4)c3C=C1CC[C@@H]2CN(CC#N)S(=O)(=O)c1ccc(Oc2ccccn2)cc1 [Example 45, N-(cyanomethyl)-N-{[(4αR,5S)-1-(4-fluorophenyl)-4α-methyl-1,4,4α,5,6,7-hexahydrocyclopenta[f]indazol-5-yl]methyl}-4-(pyridin-2-yloxy)benzenesulfonamide]
2.7	C[C@]12Cc3cnn(-c4ccc(F)cc4)c3C=C1CC[C@@H]2CN(CCc1ccccn1)S(=O)(=O)Cc1ccccc1C(N)=O [Example 196, 2-({[{[(4αR,5S)-1-(4-fluorophenyl)-4α-methyl-1,4,4α,5,6,7-hexahydrocyclopenta[f]indazol-5-yl]methyl}(2-pyridin-2-ylethyl)amino]sulfonyl}methyl)benzamide]
20.9	C[C@]12Cc3cnn(-c4ccc(F)cc4)c3C=C1CC[C@@H]2CNS(=O)(=O)Cc1cccnc1 [Example 169, N-{[(4αR,5S)-1-(4-fluorophenyl)-4α-methyl-1,4,4α,5,6,7-hexahydrocyclopenta[f]indazol-5-yl]methyl}-1-pyridin-3-ylmethanesulfonamide]
0.6	COCCN(C[C@H]1CCC2=Cc3c(cnn3-c3ccc(F)cc3)C[C@@]21C)S(=O)(=O)c1cn(C)nc1C(F)(F)F [Example 172, N-{[(4αR,5S)-1-(4-fluorophenyl)-4α-methyl-1,4,4α,5,6,7-hexahydrocyclopenta[f]indazol-5-yl]methyl}-N-(2-methoxyethyl)-1-methyl-3-(trifluoromethyl)-1H-pyrazole-4-sulfonamide]
5.9	C[C@]12Cc3cnn(-c4ccc(F)cc4)c3C=C1CC[C@@H]2CN(CC#N)S(=O)(=O)c1cc(OCC(F)(F)F)ccc1OCC(F)(F)F [Example 41, N-(cyanomethyl)-N-{[(4αR,5S)-1-(4-fluorophenyl)-4α-methyl-1,4,4α,5,6,7-hexahydrocyclopenta[f]indazol-5-yl]methyl}-2,5-bis(2,2,2-trifluoroethoxy)benzenesulfonamide]
2.6	Cc1noc(C)c1S(=O)(=O)N(CC1CCCO1)C[C@H]1CCC2=Cc3c(cnn3-c3ccc(F)cc3)C[C@@]21C (stereo partly drawn) [Example 170, N-{[(4αR,5S)-1-(4-fluorophenyl)-4α-methyl-1,4,4α,5,6,7-hexahydrocyclopenta[f]indazol-5-yl]methyl}-3,5-dimethyl-N-(tetrahydrofuran-2-ylmethyl)isoxazole-4-sulfonamide]
4	C[C@]12Cc3cnn(-c4ccc(F)cc4)c3C=C1CC[C@@H]2CN(CCO)S(=O)(=O)c1ccc(F)c(Cl)c1 [Example 19, 3-chloro-4-fluoro-N-{[(4αR,5S)-1-(4-fluorophenyl)-4α-methyl-1,4,4α,5,6,7-hexahydrocyclopenta[f]indazol-5-yl]methyl}-N-(2-hydroxyethyl)benzenesulfonamide]
1.8	Cc1ccccc1S(=O)(=O)N(CC#N)C[C@H]1CCC2=Cc3c(cnn3-c3ccc(F)cc3)C[C@@]21C [Example 49, N-(cyanomethyl)-N-{[(4αR,5S)-1-(4-fluorophenyl)-4α-methyl-1,4,4α,5,6,7-hexahydrocyclopenta[f]indazol-5-yl]methyl}-2-methylbenzenesulfonamide]
1.9	COC(=O)c1ccccc1S(=O)(=O)N(C[C@H]1CCC2=Cc3c(cnn3-c3ccc(F)cc3)C[C@@]21C)C[C@@H](C)O [Example 186, methyl 2-({{[(4αR,5S)-1-(4-fluorophenyl)-4α-methyl-1,4,4α,5,6,7-hexahydrocyclopenta[f]indazol-5-yl]methyl}[(2R)-2-hydroxypropyl]amino}sulfonyl)benzoate]
3.9	Cn1cc(S(=O)(=O)N(CC#N)C[C@H]2CCC3=Cc4c(cnn4-c4ccc(F)cc4)C[C@@]32C)c(C(F)(F)F)n1 [Example 32, N-(cyanomethyl)-N-{[(4αR,5S)-1-(4-fluorophenyl}-4α-methyl-1,4,4α,5,6,7-hexahydrocyclopenta[f]indazol-5-yl]methyl}-1-methyl-3-(trifluoromethyl)-1H-pyrazole-4-sulfonamide]
0.9	C[C@]12Cc3cnn(-c4ccc(F)cc4)c3C=C1CC[C@@H]2CN(Cc1ccccc1F)S(=O)(=O)c1cccc(C(N)=O)c1 [Example 192, 3-[((2-fluorobenzyl){[(4αR,5S)-1-(4-fluorophenyl)-4α-methyl-1,4,4α,5,6,7-hexahydrocyclopenta[f]indazol-5-yl]methyl}amino)sulfonyl]benzamide]
7.6	C[C@]12Cc3cnn(-c4ccc(F)cc4)c3C=C1CC[C@@H]2CN(CC#N)S(=O)(=O)Cc1cccc(C(F)(F)F)c1 [Example 30, N-(cyanomethyl)-N-{[(4αR,5S)-1-(4-fluorophenyl}-4α-methyl-1,4,4α,5,6,7-hexahydrocyclopenta[f]indazol-5-yl]methyl}-1-[3-(trifluoromethyl)phenyl]methanesulfonamide]
1.6	C[C@]12Cc3cnn(-c4ccc(F)cc4)c3C=C1CC[C@@H]2CN(CC#N)S(=O)(=O)c1cc(F)cc(F)c1 [Example 44, N-(cyanomethyl)-3,5-difluoro-N-{[(4αR,5S)-1-(4-fluorophenyl)-4α-methyl-1,4,4α,5,6,7-hexahydrocyclopenta[f]indazol-5-yl]methyl}benzenesulfonamide]
6.5	C[C@]12Cc3cnn(-c4ccc(F)cc4)c3C=C1CC[C@@H]2CN(CC#N)S(=O)(=O)c1ccccc1Cl [Example 50, 2-chloro-N-(cyanomethyl)-N-{[(4αR,5S)-1-(4-fluorophenyl)-4α-methyl-1,4,4α,5,6,7-hexahydrocyclopenta[f]indazol-5-yl]methyl}benzenesulfonamide]
6.1	Cc1ccc(S(=O)(=O)N(CC#N)C[C@H]2CCC3=Cc4c(cnn4-c4ccc(F)cc4)C[C@@]32C)s1 [Example 31, N-(cyanomethyl)-N-{[(4αR,5S)-1-(4-fluorophenyl}-4α-methyl-1,4,4α,5,6,7-hexahydrocyclopenta[f]indazol-5-yl]methyl}-5-methylthiophene-2-sulfonamide]
1.6	CN(C[C@H]1CCC2=Cc3c(cnn3-c3ccc(F)cc3)C[C@@]21C)S(=O)(=O)CC(F)(F)F [Example 177, 2,2,2-trifluoro-N-{[(4αR,5S)-1-(4-fluorophenyl)-4α-methyl-1,4,4α,5,6,7-hexahydrocyclopenta[f]indazol-5-yl]methyl}-N-methylethanesulfonamide]
2.2	C[C@]12Cc3cnn(-c4ccc(F)cc4)c3C=C1CC[C@@H]2CN(CC#N)S(=O)(=O)c1ccc(F)c(Cl)c1 [Example 20, 3-chloro-N-(cyanomethyl)-4-fluoro-N-{[(4αR,5S)-1-(4-fluorophenyl)-4α-methyl-1,4,4α,5,6,7-hexahydrocyclopenta[f]indazol-5-yl]methyl}benzenesulfonamide]

— US8299048B2, “Hexahydrocyclopentyl[f]indazole sulfonamides and derivatives thereof as selective glucocorticoid receptor modulators” (Merck Sharp & Dohme Corp., priority 2008, dated 2012)
